Source: ChEMBL document CHEMBL1129789, “Dopamine D3 and D4 receptor antagonists: synthesis and structure--activity relationships of (S)-(+)-N-(1-Benzyl-3-pyrrolidinyl)-5-chloro-4- [(cyclopropylcarbonyl) amino]-2-methoxybenzamide (YM-43611) and related compounds” (J Med Chem, 1996)

Tests used:
[1] = molecular target: T1, Adrenergic receptor alpha-2 (Rattus norvegicus, UniProt P22086+P19328+P22909); test: Compound was tested for the Binding affinity against rat cortical Alpha-2 adrenergic receptor by Radio ligand ([3H]-Rx-821002) binding assay; format: protein assay
T1 sequence (P22086 whole entry): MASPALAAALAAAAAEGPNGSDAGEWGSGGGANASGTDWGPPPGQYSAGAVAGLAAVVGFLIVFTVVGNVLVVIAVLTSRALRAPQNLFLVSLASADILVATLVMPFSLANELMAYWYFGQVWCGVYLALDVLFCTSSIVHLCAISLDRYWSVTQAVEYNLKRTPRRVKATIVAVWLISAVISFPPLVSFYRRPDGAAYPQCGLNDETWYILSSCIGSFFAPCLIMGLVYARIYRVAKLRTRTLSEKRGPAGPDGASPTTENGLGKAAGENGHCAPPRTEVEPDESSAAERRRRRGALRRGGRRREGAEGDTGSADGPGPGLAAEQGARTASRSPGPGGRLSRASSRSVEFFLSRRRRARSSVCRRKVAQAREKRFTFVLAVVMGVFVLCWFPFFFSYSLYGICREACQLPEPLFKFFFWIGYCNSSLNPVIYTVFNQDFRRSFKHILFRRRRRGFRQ
T1 sequence (P19328 whole entry): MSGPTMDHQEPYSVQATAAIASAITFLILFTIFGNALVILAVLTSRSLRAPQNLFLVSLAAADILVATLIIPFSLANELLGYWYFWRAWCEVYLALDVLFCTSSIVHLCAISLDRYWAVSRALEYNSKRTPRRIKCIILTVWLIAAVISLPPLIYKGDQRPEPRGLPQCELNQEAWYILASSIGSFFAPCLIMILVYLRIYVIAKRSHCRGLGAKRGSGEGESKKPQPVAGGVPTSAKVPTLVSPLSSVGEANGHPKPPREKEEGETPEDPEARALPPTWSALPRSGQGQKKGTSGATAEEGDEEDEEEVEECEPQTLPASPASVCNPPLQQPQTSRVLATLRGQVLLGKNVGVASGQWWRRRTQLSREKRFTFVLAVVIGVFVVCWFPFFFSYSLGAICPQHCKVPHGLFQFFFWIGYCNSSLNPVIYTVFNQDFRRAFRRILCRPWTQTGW
T1 sequence (P22909 whole entry): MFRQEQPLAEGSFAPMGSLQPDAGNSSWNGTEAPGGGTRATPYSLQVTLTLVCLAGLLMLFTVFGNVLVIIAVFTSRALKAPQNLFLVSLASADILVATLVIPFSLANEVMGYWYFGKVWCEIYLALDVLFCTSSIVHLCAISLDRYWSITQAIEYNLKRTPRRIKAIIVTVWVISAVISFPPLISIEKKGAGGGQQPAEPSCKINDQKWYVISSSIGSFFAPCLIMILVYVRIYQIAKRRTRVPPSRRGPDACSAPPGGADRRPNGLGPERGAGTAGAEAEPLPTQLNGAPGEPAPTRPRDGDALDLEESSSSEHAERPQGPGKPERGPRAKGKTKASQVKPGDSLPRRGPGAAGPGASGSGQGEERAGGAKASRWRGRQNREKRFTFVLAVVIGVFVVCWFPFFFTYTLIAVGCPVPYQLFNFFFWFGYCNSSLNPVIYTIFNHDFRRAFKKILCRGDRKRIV

D(1A) dopamine receptor = D(1A) dopamine receptor (Homo sapiens, UniProt P21728); test: Compound was tested for the Binding affinity against Human cloned Dopamine receptor D1 by Radio ligand ([3H]SCH-23390) binding assay
Sequence of D(1A) dopamine receptor (P21728 whole entry): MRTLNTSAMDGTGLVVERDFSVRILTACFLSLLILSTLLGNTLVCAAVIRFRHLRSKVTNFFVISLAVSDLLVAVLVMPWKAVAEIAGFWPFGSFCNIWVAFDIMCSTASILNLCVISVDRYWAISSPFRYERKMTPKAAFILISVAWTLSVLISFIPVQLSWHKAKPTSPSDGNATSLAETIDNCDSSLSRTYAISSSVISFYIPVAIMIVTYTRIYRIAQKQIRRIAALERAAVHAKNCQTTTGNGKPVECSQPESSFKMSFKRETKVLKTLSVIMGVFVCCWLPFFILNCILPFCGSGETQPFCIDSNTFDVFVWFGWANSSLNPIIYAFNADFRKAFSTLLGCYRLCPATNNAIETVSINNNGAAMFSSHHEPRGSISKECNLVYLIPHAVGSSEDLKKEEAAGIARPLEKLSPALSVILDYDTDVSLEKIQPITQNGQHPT

[2] = molecular target: T2, Muscarinic acetylcholine receptor M2 (Rattus norvegicus, UniProt P10980); test: Compound was tested for the Binding affinity against rat heart Muscarinic acetylcholine receptor M2 by Radio ligand [3H]quinuclidinyl binding assay
T2 sequence (P10980 whole entry): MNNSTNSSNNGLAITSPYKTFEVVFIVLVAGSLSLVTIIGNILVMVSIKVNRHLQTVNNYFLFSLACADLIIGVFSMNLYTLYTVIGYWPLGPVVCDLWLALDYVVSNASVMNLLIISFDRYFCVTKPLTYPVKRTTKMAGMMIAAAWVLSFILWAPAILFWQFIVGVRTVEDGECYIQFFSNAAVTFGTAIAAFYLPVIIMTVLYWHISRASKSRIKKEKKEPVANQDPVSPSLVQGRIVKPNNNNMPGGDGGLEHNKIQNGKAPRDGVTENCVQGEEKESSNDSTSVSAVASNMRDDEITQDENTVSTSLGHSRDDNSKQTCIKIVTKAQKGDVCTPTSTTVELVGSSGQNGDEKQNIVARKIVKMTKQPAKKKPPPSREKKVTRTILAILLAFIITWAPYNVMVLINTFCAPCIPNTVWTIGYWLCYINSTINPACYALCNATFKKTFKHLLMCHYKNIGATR

[3] = molecular target: T3, Muscarinic acetylcholine receptor M1 (Rattus norvegicus, UniProt P08482); test: Compound was tested for the Binding affinity against rat cortical Muscarinic acetylcholine receptor M1 by Radio ligand [3H]pirenzepine binding assay
T3 sequence (P08482 whole entry): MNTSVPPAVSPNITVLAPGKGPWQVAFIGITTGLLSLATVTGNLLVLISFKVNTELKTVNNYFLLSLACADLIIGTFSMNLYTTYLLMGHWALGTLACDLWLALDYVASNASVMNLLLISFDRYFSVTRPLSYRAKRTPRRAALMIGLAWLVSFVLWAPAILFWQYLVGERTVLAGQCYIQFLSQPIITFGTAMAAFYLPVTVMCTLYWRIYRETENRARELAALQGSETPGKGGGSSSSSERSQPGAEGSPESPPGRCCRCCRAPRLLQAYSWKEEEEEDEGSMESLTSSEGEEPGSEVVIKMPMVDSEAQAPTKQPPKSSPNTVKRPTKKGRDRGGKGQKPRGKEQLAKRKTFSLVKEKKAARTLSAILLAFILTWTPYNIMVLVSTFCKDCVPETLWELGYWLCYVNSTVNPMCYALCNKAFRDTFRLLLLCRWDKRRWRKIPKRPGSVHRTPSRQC

D(1B) dopamine receptor = D(1B) dopamine receptor (Homo sapiens, UniProt P21918)
Sequence of D(1B) dopamine receptor (P21918 whole entry): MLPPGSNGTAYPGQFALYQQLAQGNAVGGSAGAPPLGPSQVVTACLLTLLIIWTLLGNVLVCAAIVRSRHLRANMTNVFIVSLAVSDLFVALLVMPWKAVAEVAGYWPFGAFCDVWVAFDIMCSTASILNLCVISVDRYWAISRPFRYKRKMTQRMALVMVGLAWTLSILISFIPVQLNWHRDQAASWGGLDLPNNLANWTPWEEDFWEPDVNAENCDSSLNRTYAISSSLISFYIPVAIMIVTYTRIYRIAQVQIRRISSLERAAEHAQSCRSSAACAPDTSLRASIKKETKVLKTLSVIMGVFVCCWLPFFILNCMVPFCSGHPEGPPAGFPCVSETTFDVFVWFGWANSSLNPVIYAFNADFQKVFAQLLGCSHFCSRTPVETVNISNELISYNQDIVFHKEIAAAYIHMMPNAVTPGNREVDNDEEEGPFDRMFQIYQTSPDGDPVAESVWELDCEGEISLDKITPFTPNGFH

[4] = molecular target: 5-hydroxytryptamine receptor 2A (Rattus norvegicus, UniProt P14842); test: biochemical
Sequence of 5-hydroxytryptamine receptor 2A (P14842 whole entry): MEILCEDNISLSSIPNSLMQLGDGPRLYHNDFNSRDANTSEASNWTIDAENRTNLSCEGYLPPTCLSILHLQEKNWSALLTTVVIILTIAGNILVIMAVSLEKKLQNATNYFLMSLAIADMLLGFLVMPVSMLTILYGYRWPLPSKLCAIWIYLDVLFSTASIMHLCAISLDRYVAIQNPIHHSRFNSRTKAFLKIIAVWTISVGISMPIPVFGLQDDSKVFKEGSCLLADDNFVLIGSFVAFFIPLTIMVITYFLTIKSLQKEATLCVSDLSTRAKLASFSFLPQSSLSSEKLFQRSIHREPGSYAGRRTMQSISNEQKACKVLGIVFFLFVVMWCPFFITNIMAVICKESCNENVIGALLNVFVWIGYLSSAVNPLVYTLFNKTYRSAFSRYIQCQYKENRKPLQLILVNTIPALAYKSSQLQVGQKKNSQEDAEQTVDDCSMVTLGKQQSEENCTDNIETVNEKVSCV

D(4) dopamine receptor = molecular target: T4, D(4) dopamine receptor (Homo sapiens, UniProt P21917); test: biochemical
T4 sequence (P21917 whole entry): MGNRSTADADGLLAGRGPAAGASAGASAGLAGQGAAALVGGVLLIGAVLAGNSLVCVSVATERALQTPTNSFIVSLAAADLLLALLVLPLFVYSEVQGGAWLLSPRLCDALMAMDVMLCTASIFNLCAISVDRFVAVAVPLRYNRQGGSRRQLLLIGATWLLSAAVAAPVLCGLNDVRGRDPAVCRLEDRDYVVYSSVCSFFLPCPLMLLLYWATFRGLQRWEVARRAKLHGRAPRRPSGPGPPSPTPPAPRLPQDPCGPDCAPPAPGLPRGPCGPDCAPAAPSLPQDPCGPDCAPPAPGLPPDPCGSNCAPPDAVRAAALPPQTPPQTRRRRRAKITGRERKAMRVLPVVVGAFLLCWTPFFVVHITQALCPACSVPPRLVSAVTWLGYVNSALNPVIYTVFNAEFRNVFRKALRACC

Ki [1]: 4.3 µM
Ki (D(1A) dopamine receptor): > 10 µM
Ki [2]: 7.3 µM
Ki [3]: 5.4 µM
Ki (D(1B) dopamine receptor): > 10 µM
Ki [4]: > 10 µM
Ki (D(4) dopamine receptor): 0.0021 µM
Structure (SMILES): COc1cc(NC(=O)C2CC2)c(Cl)cc1C(=O)N[C@H]1CCN(Cc2ccccc2)C1
